The source of these data is patent US20110269811A1, “INHIBITORS OF SEMICARBAZIDE-SENSITIVE AMINE OXIDASE (SSAO) AND VAP-1 MEDIATED ADHESION USEFUL FOR TREATMENT AND PREVENTION OF DISEASES” (priority 2006, published 2011).

In one data set the test system is α2 (non-selective). Description: Receptor binding screen, [^3H]RX 821002. Conditions: 10 uM Concentration of Compound I-1-Z. Set-up: species or system rat. As for the experimental part: (§1) For Table 4 below, the specific ligand binding to the receptors is defined as the difference between the total binding and the nonspecific binding determined in the presence of an excess of unlabelled ligand. The results are expressed as a percent inhibition of control specific binding obtained in the presence of Compound I-1-Z. The IC50 values (concentration causing a half-maximal inhibition of control specific binding) and Hill coefficients (nH) were determined by non-linear regression analysis of the competition curves using Hill equation curve fitting. The inhibition constants (Ki) were calculated from the Cheng Prusoff equation (Ki=IC50/(1+(L/KD)), where L=concentration of radioligand in the assay, and KD=affinity of the radioligand for the receptor). In each experiment, the respective reference compound was tested concurrently with Compound I-1-Z in order to assess the assay suitability.

Data set [1] addresses T1, human diamine oxidase (DAO) (Homo sapiens, UniProt P19801).
T1 construct: made in house; host or cells: CHO cells (Flp-In, pcDNA5/FRT); serum-free conditioned medium used directly
Description: Inhibition of diamine oxidase, AMPLEX Red assay, putrescine substrate. Type of data set: biochemical. The note with it: recombinant DAO expressed in CHO cells.
Description: Compounds of the invention can be tested for their inhibitory activity against diamine oxidase (DAO). Recombinant DAO was expressed in CHO cells using standard molecular biology methods as described herein. […] The serum containing media was removed and the cells were switched to CHO SFM serum free media for 48 hours. […] The media was collected and used directly as a source of diamine oxidase for enzyme analysis.

For another data set, the target named is T2, Y1 (h) (Homo sapiens, UniProt P25929).
T2 construct: SK-N-MC cells; endogenous in cells; host or cells: SK-N-MC cells
T2 sequence (P25929 whole entry): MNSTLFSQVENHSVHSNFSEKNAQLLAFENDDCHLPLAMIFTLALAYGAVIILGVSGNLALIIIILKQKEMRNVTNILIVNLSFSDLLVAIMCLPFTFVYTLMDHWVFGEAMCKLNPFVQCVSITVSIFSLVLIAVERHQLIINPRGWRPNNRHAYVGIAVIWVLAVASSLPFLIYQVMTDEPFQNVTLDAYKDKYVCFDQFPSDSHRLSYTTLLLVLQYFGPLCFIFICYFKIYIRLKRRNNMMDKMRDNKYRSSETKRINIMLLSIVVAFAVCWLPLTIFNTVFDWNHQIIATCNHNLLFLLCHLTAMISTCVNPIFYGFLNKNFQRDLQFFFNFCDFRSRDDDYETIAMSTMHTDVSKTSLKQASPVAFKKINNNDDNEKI
Nature of the data set: Receptor binding screen, [^125I]peptide YY, SK-N-MC cells. Conditions: 10 uM Concentration of Compound I-1-Z; read-out: Mean Value, percent inhibition of control specific binding: Y1 (h).

The next data set has as its system σ (non-selective). Nature of the data set: Receptor binding screen, [^3H]DTG. More on the design: species or system rat. The note with it: 10 uM Concentration of Compound I-1-Z. As for the experimental part:
as §1

For another data set, the target named is T3, D2S (h) (Homo sapiens, UniProt P14416).
T3 construct: expressed in transfected cells; host or cells: HEK-293 cells
T3 sequence (P14416 1-414 isoform P14416-2): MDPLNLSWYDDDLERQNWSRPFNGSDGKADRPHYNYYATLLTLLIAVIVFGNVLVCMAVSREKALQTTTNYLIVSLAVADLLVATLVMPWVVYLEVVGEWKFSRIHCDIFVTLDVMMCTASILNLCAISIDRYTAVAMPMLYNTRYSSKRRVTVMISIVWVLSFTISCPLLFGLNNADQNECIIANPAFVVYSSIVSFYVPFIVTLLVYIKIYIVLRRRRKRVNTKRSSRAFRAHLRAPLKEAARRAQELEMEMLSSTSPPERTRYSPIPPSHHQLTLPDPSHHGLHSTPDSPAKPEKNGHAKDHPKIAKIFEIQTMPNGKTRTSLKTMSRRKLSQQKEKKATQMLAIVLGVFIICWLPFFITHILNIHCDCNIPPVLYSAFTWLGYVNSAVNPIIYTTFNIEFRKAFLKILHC
Nature of the data set: Receptor binding screen, [^3H]spiperone. The note with it: 10 uM Concentration of Compound I-1-Z; read-out: Mean Value, percent inhibition of control specific binding: D2S (h).

For a further data set, the target named is T4, M3 (h) (Homo sapiens, UniProt P20309).
T4 construct: expressed in transfected cells; host or cells: CHO cells
T4 sequence (P20309 whole entry): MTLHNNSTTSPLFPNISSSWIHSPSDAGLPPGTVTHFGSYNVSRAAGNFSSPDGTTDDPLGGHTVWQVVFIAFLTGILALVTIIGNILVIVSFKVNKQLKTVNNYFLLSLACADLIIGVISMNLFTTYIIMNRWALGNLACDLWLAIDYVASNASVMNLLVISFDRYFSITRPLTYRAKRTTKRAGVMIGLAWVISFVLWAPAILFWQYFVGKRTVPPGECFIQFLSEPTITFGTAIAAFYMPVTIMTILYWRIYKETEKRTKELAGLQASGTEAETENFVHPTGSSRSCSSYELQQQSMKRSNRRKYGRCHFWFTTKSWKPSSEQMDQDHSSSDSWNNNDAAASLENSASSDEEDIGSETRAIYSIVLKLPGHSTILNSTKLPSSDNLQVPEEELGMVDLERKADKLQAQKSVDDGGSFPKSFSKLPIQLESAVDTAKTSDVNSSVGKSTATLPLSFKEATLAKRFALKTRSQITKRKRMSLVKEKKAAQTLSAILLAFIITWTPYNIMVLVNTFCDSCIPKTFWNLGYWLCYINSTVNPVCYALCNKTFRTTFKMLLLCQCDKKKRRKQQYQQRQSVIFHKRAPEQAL
Description: Receptor binding screen, [^3H]4-DAMP. Conditions: 10 uM Concentration of Compound I-1-Z; read-out: Mean Value, percent inhibition of control specific binding: M3 (h).

The subject of data set [2] is LPS-induced lung inflammation. Nature of the data set: LPS-induced pulmonary inflammation in rats. The note with it: FIG. 14. The format is in vivo, Sprague Dawley rats. As for the experimental part: LPS-induced pulmonary inflammation in rats is a widely used model of airway inflammation ([…] et al. (2002) J. Pharmacol. Exp. Ther. 302:127). For the experiment described here, groups of Sprague-Dawley female rats (180-200 g) were orally dosed with either a compound of the invention (1 or 10 mg/kg), or with vehicle 1 h before the LPS challenge. Animals were placed in a plexiglass chamber and LPS at 100 μg/ml was nebulized for ten minutes. The nebulizer was turned off for ten minutes, then the chamber was evacuated for a further ten minutes. The animals remained in the chamber throughout this 30 minute cycle. Animals were then returned to their cages for the remainder of the experiment. Four hours after exposure to LPS animals were sacrificed and lungs excised. Lungs were washed with three cycles of 3 ml RPMI 1640 medium and the lavage fluid combined. Cells were pelleted by centrifugation and washed in the same medium. Total cell counts were performed using a hemacytometer. Differential cell counts were conducted on Cytospin-prepared slides stained with Diff-Quick stain. Standard morphological criteria were used to define mononuclear and neutrophilic cells. Using the above protocol, an experiment to assess the effects of compound I-1-Z was carried out. Groups of four female Sprague Dawley rats were orally administered PBS, compound I-1-Z at the indicated doses, or dexamethasone at 3 mg/kg. […]

The next data set has as its system SK^+Ca channel. Description: Receptor binding screen, [^125I]apamin. More on the design: species or system rat. Conditions: 10 uM Concentration of Compound I-1-Z. As for the experimental part: as §1
Another data set concerns the target T5, 5-HT1B (Rattus norvegicus, UniProt P28564).
T5 construct: rat cerebral cortex; from tissue; host or cells: rat cerebral cortex
Nature of the data set: Receptor binding screen, [^125I]CYP. Conditions: probe [125I]CYP (radioligand), 10 uM Concentration of Compound I-1-Z, read-out: Mean Value, percent inhibition of control specific binding: 5-HT1B.

Data set [3] deals with Ca^2+ channel (L, verapamil site) (phenylalkylamines). Nature of the data set: Receptor binding screen, [^3H](−)D 888. Conditions: 10 uM Concentration of Compound I-1-Z. More on the design: species or system rat.
A further data set concerns BZD (central). Description: Receptor binding screen, [^3H]flunitrazepam. Set-up: species or system rat. Conditions: 10 uM Concentration of Compound I-1-Z.
The next data set addresses T6, GAL1 (h) (Homo sapiens, UniProt P47211).
T6 construct: expressed in transfected cells; host or cells: HEK-293 cells
Nature of the data set: Receptor binding screen, [^125I]galanin. The note with it: 10 uM Concentration of Compound I-1-Z; read-out: Mean Value, percent inhibition of control specific binding: GAL1 (h).

Data set [4] concerns Non-Peptide Receptors, Peptide Receptors, Ion Channels. Description: Screening for receptors affected by SSAO inhibitor (specific ligand binding). Conditions: 10 μM concentration; receptor families listed. As for the experimental part:
A screening procedure was employed to determine whether compound I-1-Z affects specific ligand binding to various receptors. Ligand binding to the following receptors was not affected by a 10 μM concentration of compound I-1-Z:
Non-Peptide Receptors: Adenosine, Adrenergic, Benzodiazepine, Cannabinoid, Dopamine, GABA, Glutamate, Histamine, Melatonin, Muscarinic, Prostanoid, Purinergic, Serotonin, Sigma;
Peptide Receptors: Angiotensin II, Bombesin, Bradykinin, Calcitonin-related peptide, Chemokine, Cholecystokinin, Cytokine, Endothein, Galanin, Growth factor, Melanocortin, Neurokinin, Neuropeptide Y, Neurotensin, Opioid, Somatostatin, VIP, Vasopressin;
Ion Channels: Calcium, Potassium, Sodium. […]
For Table 4 below, the specific ligand binding to the receptors is defined as the difference between the total binding and the nonspecific binding determined in the presence of an excess of unlabelled ligand. The results are expressed as a percent inhibition of control specific binding obtained in the presence of Compound I-1-Z. The IC50 values (concentration causing a half-maximal inhibition of control specific binding) and Hill coefficients (nH) were determined by non-linear regression analysis of the competition curves using Hill equation curve fitting. […]

The target in another data set is T7, CXCR2 (h) (IL-8B) (Homo sapiens, UniProt P25025).
T7 construct: expressed in transfected cells; host or cells: HEK-293 cells
T7 sequence (P25025 whole entry): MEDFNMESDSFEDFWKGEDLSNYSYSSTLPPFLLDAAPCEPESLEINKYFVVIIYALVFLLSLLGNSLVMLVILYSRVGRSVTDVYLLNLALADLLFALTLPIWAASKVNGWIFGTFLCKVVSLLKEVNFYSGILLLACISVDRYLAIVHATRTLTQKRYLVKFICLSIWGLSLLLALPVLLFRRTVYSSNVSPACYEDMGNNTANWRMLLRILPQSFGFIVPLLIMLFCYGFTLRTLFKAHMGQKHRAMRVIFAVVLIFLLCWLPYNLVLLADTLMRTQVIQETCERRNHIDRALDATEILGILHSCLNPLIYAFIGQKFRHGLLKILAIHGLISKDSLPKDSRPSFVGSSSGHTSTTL
Description: Receptor binding screen, [^125I]IL-8. Conditions: 10 uM Concentration of Compound I-1-Z; read-out: Mean Value, percent inhibition of control specific binding: CXCR2 (h) (IL-8B).

Another data set concerns the target T8, Y2 (h) (Homo sapiens, UniProt P49146).
T8 construct: KAN-TS cells; endogenous in cells; host or cells: KAN-TS cells
Description: Receptor binding screen, [^125I]peptide YY, KAN-TS cells. The note with it: 10 uM Concentration of Compound I-1-Z; read-out: Mean Value, percent inhibition of control specific binding: Y2 (h).

T5 sequence (P28564 whole entry): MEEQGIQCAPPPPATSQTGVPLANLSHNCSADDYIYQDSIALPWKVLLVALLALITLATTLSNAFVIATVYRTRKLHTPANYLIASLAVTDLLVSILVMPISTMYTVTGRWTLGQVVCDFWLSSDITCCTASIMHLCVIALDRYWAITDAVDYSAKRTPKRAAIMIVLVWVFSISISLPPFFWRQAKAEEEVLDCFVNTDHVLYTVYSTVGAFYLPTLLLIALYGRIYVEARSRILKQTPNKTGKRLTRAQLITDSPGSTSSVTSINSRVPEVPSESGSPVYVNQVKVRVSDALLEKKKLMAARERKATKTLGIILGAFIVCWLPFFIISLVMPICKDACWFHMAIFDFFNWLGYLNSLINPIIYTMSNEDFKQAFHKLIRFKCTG
T8 sequence (P49146 whole entry): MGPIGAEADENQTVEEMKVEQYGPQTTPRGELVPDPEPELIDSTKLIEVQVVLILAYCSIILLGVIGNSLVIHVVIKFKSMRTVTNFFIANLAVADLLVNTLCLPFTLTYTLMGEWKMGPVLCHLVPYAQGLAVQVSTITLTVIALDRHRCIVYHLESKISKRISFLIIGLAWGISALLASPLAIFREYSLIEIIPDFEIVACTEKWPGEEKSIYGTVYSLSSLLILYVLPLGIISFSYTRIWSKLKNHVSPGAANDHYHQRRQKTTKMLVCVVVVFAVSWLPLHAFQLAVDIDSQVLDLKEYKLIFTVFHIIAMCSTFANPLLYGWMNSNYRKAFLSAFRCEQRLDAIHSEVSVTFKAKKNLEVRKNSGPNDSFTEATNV
T1 sequence (P19801 20-751): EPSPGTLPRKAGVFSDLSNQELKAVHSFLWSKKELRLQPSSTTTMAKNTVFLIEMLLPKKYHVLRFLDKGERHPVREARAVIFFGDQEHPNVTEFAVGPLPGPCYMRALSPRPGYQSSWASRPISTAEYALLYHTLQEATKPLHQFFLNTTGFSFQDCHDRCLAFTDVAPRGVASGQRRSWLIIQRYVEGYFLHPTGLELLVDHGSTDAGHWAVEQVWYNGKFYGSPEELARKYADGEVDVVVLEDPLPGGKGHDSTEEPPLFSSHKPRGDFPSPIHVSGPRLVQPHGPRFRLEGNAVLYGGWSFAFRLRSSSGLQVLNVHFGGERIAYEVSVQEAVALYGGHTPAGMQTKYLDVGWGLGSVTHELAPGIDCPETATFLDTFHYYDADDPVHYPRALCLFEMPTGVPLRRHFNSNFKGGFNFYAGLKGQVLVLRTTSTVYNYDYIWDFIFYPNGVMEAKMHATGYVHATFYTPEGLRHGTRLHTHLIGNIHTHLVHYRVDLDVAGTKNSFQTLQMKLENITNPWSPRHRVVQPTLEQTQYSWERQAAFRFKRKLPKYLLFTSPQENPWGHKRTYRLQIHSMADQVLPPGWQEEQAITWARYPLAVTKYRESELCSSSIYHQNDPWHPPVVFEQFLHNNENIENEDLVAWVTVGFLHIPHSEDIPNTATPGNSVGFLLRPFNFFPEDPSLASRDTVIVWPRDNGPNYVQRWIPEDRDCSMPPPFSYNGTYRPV
T6 sequence (P47211 whole entry): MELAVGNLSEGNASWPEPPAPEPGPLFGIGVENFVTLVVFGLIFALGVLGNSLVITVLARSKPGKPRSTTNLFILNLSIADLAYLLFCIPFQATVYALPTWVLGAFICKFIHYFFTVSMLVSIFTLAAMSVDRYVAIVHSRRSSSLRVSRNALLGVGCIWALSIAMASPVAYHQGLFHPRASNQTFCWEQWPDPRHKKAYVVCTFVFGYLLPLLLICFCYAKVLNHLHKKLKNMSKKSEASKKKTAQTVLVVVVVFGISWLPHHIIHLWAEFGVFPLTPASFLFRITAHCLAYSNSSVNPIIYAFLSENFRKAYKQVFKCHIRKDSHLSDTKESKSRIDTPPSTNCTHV

For `COc1ccc(C/C(=C/F)CN)cc1.Cl` [Compound I-1-Z, (Z)-3-Fluoro-2-(4-methoxybenzyl)-allylamine hydrochloride], the “Mean Value, percent inhibition of control specific binding: α2 (non-selective)” value in the data set on α2 (non-selective) is recorded as 23%. Also, in [1], the IC50 came to 92 µM. The inhibition at 10 µM on Y1 (h) was -2%; on D2S (h), -4%; on M3 (h) it was 16%; on 5-HT1B it was 16%; on GAL1 (h) it was 0%; on CXCR2 (h) (IL-8B) it was -8%. The inhibition at 10 µM on Y2 (h) came out at 11%. Also, in the data set on σ (non-selective), the “Mean Value, percent inhibition of control specific binding: σ (non-selective)” value is given as 24%. The LPS-induced lung inflammation entry in data set [2] (1 mg/kg orally before nebulized LPS) and in data set [2] (10 mg/kg orally before nebulized LPS) was “effective in reducing LPS-induced lung inflammation” each time. Besides, the “Mean Value, percent inhibition of control specific binding: SK^+Ca channel” value with SK^+Ca channel is given as 4%. The “Mean Value, percent inhibition of control specific binding: Ca^2+ channel (L, verapamil site) (phenylalkylamines)” value in data set [3] is 14%. Also, in the data set on BZD (central), the “Mean Value, percent inhibition of control specific binding: BZD (central)” value is 14%. The “Ligand binding to the listed receptors” value in data set [4] was “not affected”.

By IC50 is commonly meant the concentration at which inhibition is half-maximal. The term inhibition denotes the change of the read-out against control, counted positive when it falls.
